In the experiment the target is T1, hNav1.8 (Homo sapiens, UniProt Q9Y5Y9).
T1 construct: host or cells: HEK cells, stably transfected
T1 sequence (Q9Y5Y9 whole entry): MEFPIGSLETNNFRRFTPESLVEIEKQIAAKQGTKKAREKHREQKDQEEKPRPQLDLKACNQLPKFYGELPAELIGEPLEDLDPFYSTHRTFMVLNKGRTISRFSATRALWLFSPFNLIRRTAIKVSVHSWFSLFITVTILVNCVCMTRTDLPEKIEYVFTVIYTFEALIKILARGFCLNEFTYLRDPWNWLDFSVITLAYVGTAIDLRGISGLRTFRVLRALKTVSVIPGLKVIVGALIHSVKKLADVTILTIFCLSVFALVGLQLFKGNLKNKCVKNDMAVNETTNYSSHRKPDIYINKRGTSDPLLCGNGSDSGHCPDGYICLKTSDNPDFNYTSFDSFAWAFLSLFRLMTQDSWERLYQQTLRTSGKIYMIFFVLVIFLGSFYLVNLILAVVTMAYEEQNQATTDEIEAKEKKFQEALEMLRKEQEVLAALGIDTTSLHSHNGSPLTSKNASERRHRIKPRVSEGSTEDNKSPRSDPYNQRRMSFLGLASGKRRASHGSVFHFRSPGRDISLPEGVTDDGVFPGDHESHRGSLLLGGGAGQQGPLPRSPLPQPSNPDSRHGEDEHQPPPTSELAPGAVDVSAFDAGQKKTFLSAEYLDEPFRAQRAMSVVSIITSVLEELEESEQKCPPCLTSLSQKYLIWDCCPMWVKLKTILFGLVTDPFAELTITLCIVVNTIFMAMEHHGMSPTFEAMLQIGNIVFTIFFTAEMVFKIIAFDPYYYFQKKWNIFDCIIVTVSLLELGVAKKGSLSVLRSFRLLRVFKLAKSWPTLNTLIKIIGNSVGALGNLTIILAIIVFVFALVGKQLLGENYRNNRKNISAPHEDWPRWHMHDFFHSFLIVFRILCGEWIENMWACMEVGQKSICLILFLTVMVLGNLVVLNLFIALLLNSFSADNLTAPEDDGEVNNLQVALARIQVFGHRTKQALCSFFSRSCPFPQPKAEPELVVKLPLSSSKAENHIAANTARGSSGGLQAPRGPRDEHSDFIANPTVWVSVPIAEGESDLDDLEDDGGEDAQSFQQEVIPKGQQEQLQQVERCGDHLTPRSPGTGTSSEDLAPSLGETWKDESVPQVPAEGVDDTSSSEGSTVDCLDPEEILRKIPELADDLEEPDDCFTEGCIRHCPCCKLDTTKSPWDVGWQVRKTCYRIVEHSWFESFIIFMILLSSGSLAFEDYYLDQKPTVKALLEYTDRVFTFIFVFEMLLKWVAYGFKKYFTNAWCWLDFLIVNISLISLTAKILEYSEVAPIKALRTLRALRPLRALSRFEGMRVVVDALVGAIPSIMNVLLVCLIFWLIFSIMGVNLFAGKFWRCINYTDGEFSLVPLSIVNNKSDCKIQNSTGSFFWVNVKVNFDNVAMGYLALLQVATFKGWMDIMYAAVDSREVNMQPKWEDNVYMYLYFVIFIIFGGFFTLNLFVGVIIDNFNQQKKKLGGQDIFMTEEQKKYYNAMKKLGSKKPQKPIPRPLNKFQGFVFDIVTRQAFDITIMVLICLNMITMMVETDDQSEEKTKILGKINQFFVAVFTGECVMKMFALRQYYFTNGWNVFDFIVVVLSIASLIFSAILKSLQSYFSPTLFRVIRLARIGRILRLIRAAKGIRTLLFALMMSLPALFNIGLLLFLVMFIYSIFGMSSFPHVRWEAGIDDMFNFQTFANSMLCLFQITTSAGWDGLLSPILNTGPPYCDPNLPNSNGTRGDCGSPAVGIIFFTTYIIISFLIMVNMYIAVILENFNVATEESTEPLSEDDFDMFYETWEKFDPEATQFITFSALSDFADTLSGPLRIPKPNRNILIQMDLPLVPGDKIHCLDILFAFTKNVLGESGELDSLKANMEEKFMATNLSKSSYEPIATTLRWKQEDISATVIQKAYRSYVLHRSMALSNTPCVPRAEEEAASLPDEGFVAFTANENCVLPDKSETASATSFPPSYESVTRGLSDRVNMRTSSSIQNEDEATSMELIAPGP
As to the kind of experiment: hNav1.8 whole-cell patch-clamp electrophysiology (conventional or PatchXpress 7000) in stably transfected HEK cells. The class given is cell-based. Particulars: estimated IC50 calculated from single point % inhibition; HEK cells expressing hNav1.8; 8 sec prepulse to V1/2, 20 msec step to 0 mV; average of replicates; read-out: Nav1.8 EIC50. The essentials:
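Whole-cell voltage clamp at 22-24 °C in HEK cells stably expressing hNav1.8, manually or on PatchXpress. Current evoked by 20 msec step to 0 mV after 8 s prepulse to each cell's inactivation V1/2; single-concentration % inhibition converted to estimated IC50, using only 20-80% inhibition values, averaged over replicates.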
Consider `CC(C)(N)c1nc2cc(-c3cccc(C#N)c3)ccc2[nH]1` [Example 72, 3-[2-(1-Amino-1-methylethyl)-1H-benzimidazol-5-yl]benzonitrile], for which the IC50 is 2490 nM.
`CC(C)(N)c1nc2cc(-c3cccc(Cl)c3C#N)ccc2[nH]1` [Example 73, 2-[2-(1-Amino-1-methylethyl)-1H-benzimidazol-5-yl]-6-chlorobenzonitrile]: the IC50 is 827 nM.
Regarding `CC(C)(N)c1nc2cc(-c3ccccc3C#N)ccc2[nH]1` [Example 74, 2-[2-(1-Amino-1-methylethyl)-1H-benzimidazol-5-yl]benzonitrile], the IC50 is 1360 nM.
As for `CO[C@H](C)[C@H](N)c1nc2cc(-c3ccccc3C#N)ccc2[nH]1` [Example 77, 2-{2-[(1R,2R)-1-Amino-2-methoxypropyl]-1H-benzimidazol-5-yl}benzonitrile], the figure is 483 nM; as for `C[C@@H](O)[C@H](N)c1nc2cc(C(C)(C)C)ccc2[nH]1` [Example 78, (1R,2R)-1-Amino-1-(5-tert-butyl-1H-benzimidazol-2-yl)propan-2-ol], 59.3 nM; as for `CN[C@H](c1nc2cc(C(C)(C)C)ccc2[nH]1)[C@@H](C)O` [Example 79, (1R,2R)-1-(5-tert-Butyl-1H-benzimidazol-2-yl)-1-(methylamino)propan-2-ol], 168 nM.
Take `CC(C)(C)c1ccc2[nH]c([C@](C)(N)CO)nc2c1` [Example 80, (2S)-2-Amino-2-(5-tert-butyl-1H-benzimidazol-2-yl)propan-1-ol]: the IC50 is 87.6 nM.
As for `CC[C@H](N)c1nc2cc(-c3ccc(C#N)cc3)ccc2[nH]1` [Example 81, 4-{2-[(1S)-1-Aminopropyl]-1H-benzimidazol-5-yl}benzonitrile], the IC50 was 82.8 nM.
On to `N#Cc1ccc(-c2ccc3[nH]c([C@@H](N)CO)nc3c2)cc1` [Example 82, 4-{2-[(1R)-1-Amino-2-hydroxyethyl]-1H-benzimidazol-5-yl}benzonitrile], for which the IC50 is 323 nM.
As for `CO[C@H](C)[C@@H](N)c1nc2cc(C(C)(C)C)ccc2[nH]1` [Example 83, (1S,2R)-1-(5-tert-Butyl-1H-benzimidazol-2-yl)-2-methoxypropan-1-amine], the figure is 872 nM.
As for `CO[C@H](C)[C@H](N)c1nc2cc(-c3ccc(C#N)cc3Cl)ccc2[nH]1` [Example 84, 4-{2-[(1R,2R)-1-Amino-2-methoxypropyl]-1H-benzimidazol-5-yl}-3-chlorobenzonitrile], the IC50 was 81.9 nM.
Regarding `CO[C@H](C)[C@H](N)c1nc2cc(-c3ccc(C#N)c(F)c3)ccc2[nH]1` [Example 85, 4-{2-[(1R,2R)-1-Amino-2-methoxypropyl]-1H-benzimidazol-5-yl}-2-fluorobenzonitrile], the IC50 is 10.5 nM.
`CO[C@H](C)[C@H](N)c1nc2cc(-c3ccc(C#N)cc3C(F)(F)F)ccc2[nH]1` [Example 86, 4-{2-[(1R,2R)-1-Amino-2-methoxypropyl]-1H-benzimidazol-5-yl}-3-(trifluoromethyl)-benzonitrile]: the IC50 was 111 nM.
As for `CO[C@H](C)[C@H](N)c1nc2cc(-c3cc(F)c(C#N)c(F)c3)ccc2[nH]1` [Example 87, 4-{2-[(1R,2R)-1-Amino-2-methoxypropyl]-1H-benzimidazol-5-yl}-2,6-difluorobenzonitrile], the figure is 1330 nM; as for `C[C@@H](O)[C@H](N)c1nc2cc(-c3ccc(C#N)c(C#N)c3)ccc2[nH]1` [Example 88, 4-{2-[(1R,2R)-1-Amino-2-hydroxypropyl]-1H-benzimidazol-5-yl}benzene-1,2-dicarbonitrile], 993 nM; as for `C[C@@H](O)[C@H](N)c1nc2cc(-c3cc(F)c(C#N)c(F)c3)ccc2[nH]1` [Example 89, 4-{2-[(1R,2R)-1-Amino-2-hydroxypropyl]-1H-benzimidazol-5-yl}-2,6-difluorobenzonitrile], 2390 nM.
For the compound `CO[C@H](C)[C@H](N)c1nc2cc(-c3ccc(C#N)cc3F)ccc2[nH]1` [Example 90, 4-{2-[(1R,2R)-1-Amino-2-methoxypropyl]-1H-benzimidazol-5-yl}-3-fluorobenzonitrile], the IC50 was 18.7 nM.
As for `CO[C@H](C)[C@H](N)c1nc2cc(-c3ccc(C#N)cc3)c(F)cc2[nH]1` [Example 91, 4-{2-[(1R,2R)-1-Amino-2-methoxypropyl]-6-fluoro-1H-benzimidazol-5-yl}benzonitrile], the figure is 666 nM; as for `CO[C@H](C)[C@H](N)c1nc2cc(-c3ccc(C#N)cc3)ccc2[nH]1` [Example 92, 4-{2-[(1R,2R)-1-Amino-2-methoxypropyl]-1H-benzimidazol-5-yl}benzonitrile], 17.5 nM; as for `CO[C@@H](C)[C@@H](N)c1nc2cc(-c3ccc(C#N)cc3)ccc2[nH]1` [Example 93, 4-{2-[(1S,2S)-1-Amino-2-methoxypropyl]-1H-benzimidazol-5-yl}benzonitrile], 746 nM.
Regarding `CO[C@@H](C)[C@@H](N)c1nc2cc(C(C)(C)C)ccc2[nH]1` [Example 94, (1S,2S)-1-(5-tert-Butyl-1H-benzimidazol-2-yl)-2-methoxypropan-1-amine], the IC50 was 1080 nM.
In the case of `CC(C)c1ccc2[nH]c([C@@H](N)CC(N)=O)nc2c1` [Example 95, (3S)-3-Amino-3-[5-(propan-2-yl)-1H-benzimidazol-2-yl]propanamide], the IC50 was 3310 nM.
The result for `CO[C@H](C)[C@H](N)c1nc2cc(CC(C)(C)C)c(F)cc2[nH]1` [Example 96, (1R,2R)-1-[5-(2,2-Dimethylpropyl)-5-fluoro-1H-benzimidazol-2-yl]-2-methoxypropan-1-amine] reads 188 nM.
For the compound `CC[C@@H](N)c1nc2cc(C(C)(C)C)ccc2[nH]1` [Example 97, (1R)-1-(5-tert-Butyl-1H-benzimidazol-2-yl)propan-1-amine], the IC50 was 151 nM.
Regarding `C[C@@H](O)[C@H](N)c1nc2c(F)c(-c3ccc(C#N)cc3)ccc2[nH]1` [Example 98, 4-{2-[(1R,2R)-1-Amino-2-hydroxypropyl]-4-fluoro-1H-benzimidazol-5-yl}benzonitrile], the IC50 was 1350 nM.
The result for `C[C@@H](O)[C@H](N)c1nc2c(Cl)c(-c3ccc(C#N)cc3)ccc2[nH]1` [Example 99, 4-{2-[(1R,2R)-1-Amino-2-hydroxypropyl]-4-chloro-1H-benzimidazol-5-yl}benzonitrile] reads 2490 nM; that for `C[C@@H](O)[C@H](N)c1nc2cc(-c3ccc(C#N)cc3C(F)(F)F)ccc2[nH]1` [Example 100, 4-{2-[(1R,2R)-1-Amino-2-hydroxypropyl]-1H-benzimidazol-5-yl}-3-(trifluoromethyl)benzonitrile], 82.5 nM.
The result for `C[C@@H](O)[C@H](N)c1nc2cc(-c3ccc(C#N)cc3F)ccc2[nH]1` [Example 101, 4-{2-[(1R,2R)-1-Amino-2-hydroxypropyl]-1H-benzimidazol-5-yl}-3-fluorobenzonitrile] reads 200 nM; that for `CC(C)(C)c1ccc2[nH]c([C@@H](N)C(C)(C)O)nc2c1` [Example 102, (1R)-1-Amino-1-(5-tert-butyl-1H-benzimidazol-2-yl)-2-methylpropan-2-ol], 71 nM; that for `[2H][13C]([2H])([2H])[C@@H](C(N)=O)[C@H](N)c1nc2cc(C(C)(C)C)ccc2[nH]1` [Example 105, (2R,3S)-3-Amino-3-(5-tert-butyl-1H-benzimidazol-2-yl)-2-(^13CD3-methyl)propanamide], 69.9 nM.
As for `C[C@H](OC(N)=O)[C@H](N)c1nc2cc(C(C)(C)C)ccc2[nH]1` [Example 106, (1R,2S)-1-Amino-1-(5-tert-butyl-1H-benzimidazol-2-yl)propan-2-yl carbamate], the figure is 35 nM.
In the case of `C[C@@H](OC(N)=O)[C@H](N)c1nc2cc(C(C)(C)C)ccc2[nH]1` [Example 107, (1R,2R)-1-Amino-1-(6-tert-butyl-1H-benzimidazol-2-yl)propan-2-yl carbamate], the IC50 is 356 nM.
The result for `CNC(=O)[C@H](C)[C@H](N)c1nc2cc(C(C)(C)C)ccc2[nH]1` [Example 108, (2R,3S)-3-Amino-3-(6-tert-butyl-1H-benzimidazol-2-yl)-N,2-dimethylpropanamide] reads 207 nM.
As for `C[C@@H](C(N)=O)[C@H](N)c1nc2cc(-c3ccc(C#N)c(F)c3)ccc2[nH]1` [Example 109, (2R,3S)-3-Amino-3-[5-(4-cyano-3-fluorophenyl)-1H-benzimidazol-2-yl]-2-methylpropanamide], the figure is 56.1 nM; as for `C[C@@H](C(N)=O)[C@H](N)c1nc2c(Cl)c(-c3ccc(C#N)c(F)c3)ccc2[nH]1` [Example 110, (2R,3S)-3-Amino-3-[4-chloro-5-(4-cyano-3-fluorophenyl)-1H-benzimidazol-2-yl]-2-methylpropanamide], 233 nM.
As for `C[C@@H](C(N)=O)[C@H](N)c1nc2c(Cl)c(-c3ccc(C#N)cc3)ccc2[nH]1` [Example 111, (2R,3S)-3-Amino-3-[4-chloro-5-(4-cyanophenyl)-1H-benzimidazol-2-yl]-2-methylpropanamide], the figure is 190 nM.
With `CC[C@H](N)c1nc2cc(CC(C)(C)C)ccc2[nH]1` [Example 112, (1S)-1-[5-(2,2-Dimethylpropyl)-1H-benzimidazol-2-yl]propan-1-amine], the IC50 was 187 nM.
The result for `CC[C@H](N)c1nc2cc(C3CCC3)ccc2[nH]1` [Example 113, 1-(5-Cyclobutyl-1H-benzimidazol-2-yl)propylamine] reads 749 nM; that for `N#Cc1ccc(-c2ccc3[nH]c(C4(N)Cc5ccccc5C4)nc3c2)cc1F` [Example 114, 4-[2-(2-Amino-2,3-dihydro-1H-inden-2-yl)-1H-benzimidazol-5-yl]-2-fluorobenzonitrile], 27.8 nM; that for `CC(C)(C)Cc1ccc2[nH]c(C(C)(N)CO)nc2c1` (stereo not shown) [Example 115, 2-Amino-2-[6-(2,2-dimethylpropyl)-1H-benzimidazol-2-yl]propan-1-ol], 278 nM.

(Values after patent publication US8927587B2, “Chemical compounds” (Pfizer Limited, priority 2012, dated 2015).)
